Experiments:
[1] = LC-MS analysis of the TGA samples for thermal isomerization to isomidazolam; assay type: physicochemical; settings: LC-MS of sample after TGA at 200° C. for 50 minutes
[2] = for weight remaining of starting sample (TGA): heated at 200° C. for 50 minutes
Protocol: To test the stable ion-pair hypothesis, TGA of PTSA, midazolam, and their combined salt pair were heated at 200° C. for 50 minutes and their decomposition rates were compared (FIG. 13).

[3] = pH titration of the carboxylate with mother liquor analysis (solubility versus pH); assay type: physicochemical; settings: pH values below 1, methanol/KOH saponification mixture titrated with acid
Protocol: Saponification of midazolam ethyl ester to the carboxylic acid was performed both in batch and flow, but poor solubility limited the throughput of a continuous manufacturing approach. Therefore, the reaction was run as a batch in a methanol/KOH solution. Much of the R&D on this process step revolved around the reactive crystallization of the carboxylic acid product. […] An initial screen was performed by titrating a batch of the carboxylate and analyzing the mother liquor at decreasing pH values to determine the pH value with the highest yield (FIG. 10).
The titration experiment determined that pH 5.5-6.0 would provide the highest yielding crystallization. At pH values lower than this, the solubility of the product increases again until it is fully soluble at pH values below 1. […] This was an attractive development as the ring open form had been previously reported to provide a purer decarboxylation. The ring quickly closes in neutral solvent, and the diastereomeric methylene resonances appear clearly between 4-6 ppm. […] To test this hypothesis, we performed […] batch reactions and crystallization at pH 1, and 5.5. The solid products were characterized by thermogravimetric analysis and ^1H NMR spectroscopy (FIGS. 11A and 11B).

Row | Molecule | isomidazolam formed in TGA sample [1] [% LCAP] | weight remaining of starting sample (TGA) [2] [weight %] | solubility of the product [3] | weight remaining (TGA) ([2]; heated at 200° C., within 40 minutes of heating) [weight %]
1 | 8-chloro-6-(2-fluorophenyl)-1-methyl-4H-imidazo[1,5-a][1,4]benzodiazopine [Midazolam, reference compound] | 12 | 65 | – | –
2 | Cc1nc(C(=O)O)c2n1-c1ccc(Cl)cc1C(c1ccccc1F)=NC2 [Midazolam carboxylic acid, 8-chloro-6-(2-fluorophenyl)-1-methyl-4H-imidazo[1,5-a][1,4]benzodiazopine-3-carboxylic acid] | – | – | fully soluble | –
3 | Cc1ccc(S(=O)(=O)O)cc1 [PTSA, para-toluenesulfonic acid] | – | – | – | ~10
4 | Cc1ccc(S(=O)(=O)O)cc1.Cc1ncc2n1-c1ccc(Cl)cc1C(c1ccccc1F)=NC2 [midazolam:PTSA pair] | 1 | 90 | – | –
